Test: isobaric coefficient of expansion; xn = mol fraction of the nth substance listed
Conditions: 348.15 K, calorimetric method

CCCCCCO [hexan-1-ol] + CCCCCC
isobaric coefficient of expansion
Conditions	5000 kPa	10000 kPa	15000 kPa	20000 kPa	25000 kPa	30000 kPa	35000 kPa	40000 kPa	45000 kPa	50000 kPa
x1 = 0.0321	0.00153 1/K	0.00141 1/K	0.00133 1/K	0.00126 1/K	0.00119 1/K	0.00114 1/K	0.00109 1/K	0.00105 1/K	0.00101 1/K	0.00098 1/K
x1 = 0.041	0.00152 1/K	0.00142 1/K	0.00133 1/K	0.00126 1/K	0.0012 1/K	0.00114 1/K	0.0011 1/K	0.00105 1/K	0.00101 1/K	0.00098 1/K
x1 = 0.0946	0.00151 1/K	0.00141 1/K	0.00133 1/K	0.00126 1/K	0.00119 1/K	0.00114 1/K	0.0011 1/K	0.00105 1/K	0.00102 1/K	0.000988 1/K
x1 = 0.1679	0.00147 1/K	0.00138 1/K	0.0013 1/K	0.00123 1/K	0.00118 1/K	0.00113 1/K	0.00108 1/K	0.00104 1/K	0.001 1/K	0.000967 1/K
x1 = 0.2153	0.00144 1/K	0.00135 1/K	0.00128 1/K	0.00122 1/K	0.00116 1/K	0.00111 1/K	0.00107 1/K	0.00103 1/K	0.000999 1/K	0.000968 1/K
x1 = 0.3016	0.00138 1/K	0.0013 1/K	0.00124 1/K	0.00118 1/K	0.00112 1/K	0.00108 1/K	0.00104 1/K	0.00101 1/K	0.000976 1/K	0.000944 1/K
x1 = 0.4075	0.00132 1/K	0.00125 1/K	0.00119 1/K	0.00113 1/K	0.00109 1/K	0.00105 1/K	0.00101 1/K	0.000981 1/K	0.00095 1/K	0.000924 1/K
x1 = 0.503	0.00126 1/K	0.0012 1/K	0.00114 1/K	0.0011 1/K	0.00106 1/K	0.00102 1/K	0.000989 1/K	0.000956 1/K	0.000929 1/K	0.000904 1/K
x1 = 0.594	0.00121 1/K	0.00115 1/K	0.0011 1/K	0.00106 1/K	0.00102 1/K	0.000993 1/K	0.00096 1/K	0.000928 1/K	0.000904 1/K	0.000882 1/K
x1 = 0.6827	0.00116 1/K	0.00111 1/K	0.00107 1/K	0.00103 1/K	0.000994 1/K	0.000963 1/K	0.000933 1/K	0.000903 1/K	0.000881 1/K	0.000859 1/K
x1 = 0.8013	0.00109 1/K	0.00105 1/K	0.00101 1/K	0.000979 1/K	0.000947 1/K	0.00092 1/K	0.000892 1/K	0.000866 1/K	0.000845 1/K	0.000824 1/K
x1 = 0.8934	0.00104 1/K	0.001 1/K	0.00097 1/K	0.00094 1/K	0.000911 1/K	0.000886 1/K	0.000862 1/K	0.000838 1/K	0.000817 1/K	0.000797 1/K
x1 = 1	0.000995 1/K	0.00096 1/K	0.000929 1/K	0.000903 1/K	0.000875 1/K	0.000852 1/K	0.000831 1/K	0.000808 1/K	0.000791 1/K	0.000772 1/K
